Each structure is given as a SMILES string.

One series is described as follows: Stability in rat plasma. As to conditions: after 4 hours, 37° C. It is filed as in vitro ADME. The protocol:
In order to evaluate the stability to circulating enzymes, test compounds were incubated in human and rat plasma at 37° C. in a thermostated oscillating bath. Each test compound was incubated at μM (50 μM when the samples were analysed by UV/HPLC, 1 or 2 μM when the samples were analysed by LC-MS/MS) concentration for 0, 15, 30 min and 1, 2 and 4 hours. The reaction was stopped placing tubes on ice bath and adding acidified acetonitrile. After centrifugation for 10 minutes at 14000 rpm, an aliquot of the supernatant was diluted with water, filtered with 0.45 μm syringe filters and injected in HPLC-UV or in LC-MS/MS. The percentages of amount remaining at the various times of incubation with respect to initial amount were calculated. The half-life in plasma was also calculated.

The target of a further series is T1, recombinant human HDAC6 (Homo sapiens, UniProt Q9UBN7).
T1 sequence (Q9UBN7 1-1215): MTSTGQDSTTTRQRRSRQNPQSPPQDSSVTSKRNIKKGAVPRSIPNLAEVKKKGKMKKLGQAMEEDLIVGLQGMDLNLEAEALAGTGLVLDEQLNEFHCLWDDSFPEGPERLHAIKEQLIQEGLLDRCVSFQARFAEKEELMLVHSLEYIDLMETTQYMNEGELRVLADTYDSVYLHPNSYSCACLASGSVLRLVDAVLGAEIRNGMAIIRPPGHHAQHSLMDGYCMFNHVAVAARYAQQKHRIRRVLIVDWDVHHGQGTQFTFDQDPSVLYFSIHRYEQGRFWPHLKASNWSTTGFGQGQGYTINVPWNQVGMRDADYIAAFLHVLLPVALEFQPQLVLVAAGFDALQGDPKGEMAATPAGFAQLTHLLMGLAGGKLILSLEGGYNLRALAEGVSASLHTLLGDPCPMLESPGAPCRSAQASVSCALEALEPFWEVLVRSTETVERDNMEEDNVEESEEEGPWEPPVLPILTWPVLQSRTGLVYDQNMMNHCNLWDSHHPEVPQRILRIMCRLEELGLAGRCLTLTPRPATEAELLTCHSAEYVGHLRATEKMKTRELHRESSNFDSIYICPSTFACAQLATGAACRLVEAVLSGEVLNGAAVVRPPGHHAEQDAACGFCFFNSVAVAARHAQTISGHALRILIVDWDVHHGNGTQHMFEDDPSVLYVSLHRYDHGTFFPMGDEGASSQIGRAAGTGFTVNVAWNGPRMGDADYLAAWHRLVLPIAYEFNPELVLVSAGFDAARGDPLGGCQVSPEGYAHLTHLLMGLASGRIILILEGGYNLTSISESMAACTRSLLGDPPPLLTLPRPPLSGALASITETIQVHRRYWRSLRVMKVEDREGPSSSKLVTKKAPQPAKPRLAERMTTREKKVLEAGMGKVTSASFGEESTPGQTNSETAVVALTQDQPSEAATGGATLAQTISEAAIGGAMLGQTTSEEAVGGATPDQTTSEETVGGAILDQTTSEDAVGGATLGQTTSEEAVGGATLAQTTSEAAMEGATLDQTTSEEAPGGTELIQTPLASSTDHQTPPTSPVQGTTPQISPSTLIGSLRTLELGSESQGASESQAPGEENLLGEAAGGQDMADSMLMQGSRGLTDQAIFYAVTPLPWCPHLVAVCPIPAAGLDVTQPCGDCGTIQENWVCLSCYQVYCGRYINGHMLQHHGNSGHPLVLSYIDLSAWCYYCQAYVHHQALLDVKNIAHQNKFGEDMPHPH
The series can be described thus: Enzymatic screening on recombinant human HDAC6. The series is classed as biochemical. As to conditions: Table 2; read-out: HDAC6 IC50. Summed up: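 Recombinant human HDAC isoforms were incubated with compound at 30 °C for isoform-specific times. Fluor de Lys, Fluor de Lys-Green or trifluoroacetyl-lysine substrate in Tris-HCl pH 8 buffer with NaCl, Tween-20 and glycerol was then added, followed by reaction at 30 °C.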

A short description of series [1]: Stability to Phase I metabolism in rat S9 liver fraction. As to conditions: after 90 min, 37° C. It is filed as in vitro ADME. The protocol: Test compounds were incubated in rat and human liver S9 fraction at 37° C. up to 90 minutes in order to evaluate their stability to Phase I metabolism by hepatic enzymes. […] The reaction was stopped placing samples on ice bath and adding acidified acetonitrile. After centrifugation (10 minutes at 14000 rpm) an aliquot of the supernatant was diluted water, filtered with 0.45 μm regenerated cellulose syringe filters and injected in HPLC-UV or in LC-MS/MS. The percentages of the amount remaining at the various incubation times with respect to the initial amount were calculated. The intrinsic clearance was also calculated.

Broadly, the IC50 is the concentration that gives 50% inhibition. Turning to `O=C(NO)c1cc(F)c(Cn2nnnc2-c2ccc3ccccc3n2)c(F)c1` [comp. 96, 3,5-difluoro-4-[[5-(2-quinolyl)tetrazol-1-yl]methyl]benzenecarbohydroxamic acid], in “Stability in rat plasma”, the “residual percentage in rat plasma” value is reported as 99%. Further, on recombinant human HDAC6, the IC50 amounted to 7 nM. Also, the “residual percentage in rat S9 fraction” value in series [1] was determined as 41%.
The matching figures for `Cn1c(Sc2c(F)cc(C(=O)NO)cc2F)nnc1-c1sc2ncccc2c1N` [comp. 99, 4-[[5-(3-aminothieno[2,3-b]pyridin-2-yl)-4-methyl-1,2,4-triazol-3-yl]sulfanyl]-3,5-difluoro-benzenecarbohydroxamic acid]: 91%, 7 nM and 108%.
As for `Cn1c(Sc2c(F)cc(C(=O)NO)cc2F)nnc1C1(c2ccccc2)CCC1` [comp. 101, 3,5-difluoro-4-[[4-methyl-5-(1-phenylcyclobutyl)-1,2,4-triazol-3-yl]sulfanyl]benzenecarbohydroxamic acid], the “residual percentage in rat plasma” value in “Stability in rat plasma” was found to be 73%. Moreover, the half-inhibitory concentration (IC50) on recombinant human HDAC6 turned out to be 18 nM. Besides, in series [1], the “residual percentage in rat S9 fraction” value came out at 9%.
As for `Cn1c(Sc2c(F)cc(C(=O)NO)cc2F)nnc1C1(c2cccc(F)c2)CCCC1` [comp. 102, 3,5-difluoro-4-[[5-[1-(3-fluorophenyl)cyclopentyl]-4-methyl-1,2,4-triazol-3-yl]sulfanyl]benzenecarbohydroxamic acid], the “residual percentage in rat plasma” value in the series “Stability in rat plasma” came out at 82%. The half-inhibitory concentration (IC50) at recombinant human HDAC6 was 33 nM. In series [1], the “residual percentage in rat S9 fraction” value worked out at 16%.
The matching figures for `COc1ccc(C2(c3nnc(Sc4c(F)cc(C(=O)NO)cc4F)n3C)CCCCC2)cc1` [comp. 103, 3,5-difluoro-4-[[5-[1-(4-methoxyphenyl)cyclohexyl]-4-methyl-1,2,4-triazol-3-yl]sulfanyl]benzenecarbohydroxamic acid]: 79%, 56 nM and 5%.
The matching figures for `O=C(NO)c1cc(F)c(Cn2nnnc2-c2cccc(S(F)(F)(F)(F)F)c2)c(F)c1` [comp. 109, 3,5-difluoro-4-[[5-[3-(pentafluoro-lambda6-sulfanyl)phenyl]tetrazol-1-yl]methyl]benzenecarbohydroxamic acid]: 10%, 35 nM and 72%.
`O=C(NO)c1ccc(Cn2nnc(-c3ccc(S(F)(F)(F)(F)F)cc3)n2)cc1` [comp. 110, 4-[[5-[4-(pentafluoro-lambda6-sulfanyl)phenyl]tetrazol-2-yl]methyl]benzenecarbohydroxamic acid]: in the series “Stability in rat plasma”, the “residual percentage in rat plasma” value stood at 92%. The IC50 on recombinant human HDAC6 is 25 nM. The “residual percentage in rat S9 fraction” value in series [1] worked out at 16%.
For `O=C(NO)c1cc(F)c(Sc2nnc(CN3CCCCC3)n2-c2ccc(F)cc2)c(F)c1` [comp. 115, 3,5-difluoro-4-[[4-(4-fluorophenyl)-5-(1-piperidylmethyl)-1,2,4-triazol-3-yl]sulfanyl]benzenecarbohydroxamic acid], in that order: 73%, 122 nM and 57%.
As to `O=C(NO)c1cc(F)c(Sc2nnc(N3CCCC3)n2Cc2ccco2)c(F)c1` [comp. 116, 3,5-difluoro-4-[[4-(2-furylmethyl)-5-pyrrolidin-1-yl-1,2,4-triazol-3-yl]sulfanyl]benzenecarbohydroxamic acid], the “residual percentage in rat plasma” value in “Stability in rat plasma” is reported as 78%. In addition, the IC50 on recombinant human HDAC6 was 25 nM. The “residual percentage in rat S9 fraction” value in series [1] came out at 65%.
As for `O=C(NO)c1cc(F)c(Sc2nnc(N3CCOCC3)n2Cc2ccccc2)c(F)c1` [comp. 117, 4-[(4-benzyl-5-morpholino-1,2,4-triazol-3-yl)sulfanyl]-3,5-difluoro-benzenecarbohydroxamic acid], in the series “Stability in rat plasma”, the “residual percentage in rat plasma” value is reported as 82%. For the same compound, on recombinant human HDAC6, the concentration for half-maximal inhibition (IC50) was determined as 17 nM. For the same compound, in series [1], the “residual percentage in rat S9 fraction” value is listed as 88%.
For `O=C(NO)c1cc(F)c(Cn2nnnc2Cc2ccccn2)c(F)c1.O=C(O)C(F)(F)F` [comp. 135, 3,5-difluoro-4-[[5-(2-pyridylmethyl)tetrazol-1-yl]methyl]benzenecarbohydroxamic acid;2,2,2-trifluoroacetic acid], in that order: 78%, 93 nM and 96%.
On to `Cc1nc2ccc(F)cc2cc1-c1nnc(Sc2c(F)cc(C(=O)NO)cc2F)n1C` [comp. 137, 3,5-difluoro-4-[[5-(6-fluoro-2-methyl-3-quinolyl)-4-methyl-1,2,4-triazol-3-yl]sulfanyl]benzenecarbohydroxamic acid], for which the “residual percentage in rat plasma” value in the series “Stability in rat plasma” is recorded as 100%. Also, at recombinant human HDAC6, the concentration for half-maximal inhibition (IC50) came to 14 nM. Also, in series [1], the “residual percentage in rat S9 fraction” value was found to be 52%.
The matching figures for `O=C(NO)c1cc(F)c(Sc2nnc(-c3cnccn3)n2Cc2ccco2)c(F)c1` [comp. 139, 3,5-difluoro-4-[[4-(2-furylmethyl)-5-pyrazin-2-yl-1,2,4-triazol-3-yl]sulfanyl]benzenecarbohydroxamic acid]: 90%, 18 nM and 40%.
Take `O=C(NO)c1cc(F)c(Sc2nnc(-c3ccccn3)n2Cc2ccco2)c(F)c1` [comp. 140, 3,5-difluoro-4-[[4-(2-furylmethyl)-5-(2-pyridyl)-1,2,4-triazol-3-yl]sulfanyl]benzenecarbohydroxamic acid]: in “Stability in rat plasma”, the “residual percentage in rat plasma” value turned out to be 85%. For the same compound, on recombinant human HDAC6, the IC50 was determined as 14 nM. Further, the “residual percentage in rat S9 fraction” value in series [1] was determined as 12%.
Consider `O=C(NO)c1cc(F)c(Sc2nnc(-c3ccccc3F)n2Cc2ccco2)c(F)c1` [comp. 145, 3,5-difluoro-4-[[5-(2-fluorophenyl)-4-(2-furylmethyl)-1,2,4-triazol-3-yl]sulfanyl]benzenecarbohydroxamic acid], for which, in “Stability in rat plasma”, the “residual percentage in rat plasma” value was determined as 79%. Also, on recombinant human HDAC6, the IC50 was found to be 16 nM. For the same compound, in series [1], the “residual percentage in rat S9 fraction” value turned out to be 7%.
The matching figures for `Cn1c(Sc2c(F)cc(C(=O)NO)cc2F)nnc1-c1cccnc1` [comp. 153, 3,5-difluoro-4-[[4-methyl-5-(3-pyridyl)-1,2,4-triazol-3-yl]sulfanyl]benzenecarbohydroxamic acid]: 76%, 25 nM and 91%.
